Read-outs that look alike come from different tables or passages of the source.

Consider five molecules from patent US4981788A, “Novel acetylpolyamine amidohydrolase” (Kyowa Hakko Kogyo Co., Ltd., priority 1987, dated 1991).

Assay [1] concerns E1: Enzyme derived from Streptomyces avellaneus (acetylpolyamine amidohydrolase). Conditions: cited from earlier work; for Relative activity, E1: activity against acetylputrescine defined as 100; for Relative activity, St. avellaneus enzyme: acetylputrescine = 100.
Assay [2] concerns E2: Enzyme derived from Arthrobacter sp. (acetylpolyamine amidohydrolase). Conditions: pH 7.0, cited from earlier work; for Relative activity, E2: activity against acetylputrescine defined as 100.
The target of assay [3] is T1, acetylpolyamine amidohydrolase (the present enzyme, product purified to homogeneity) (Mycoplana ramosa, UniProt Q48935).
T1 construct: novel acetylpolyamine amidohydrolase of the present invention accumulated within the grown cells; made in house; host or cells: Mycoplana (natural producer)
T1 sequence (Q48935 1-341): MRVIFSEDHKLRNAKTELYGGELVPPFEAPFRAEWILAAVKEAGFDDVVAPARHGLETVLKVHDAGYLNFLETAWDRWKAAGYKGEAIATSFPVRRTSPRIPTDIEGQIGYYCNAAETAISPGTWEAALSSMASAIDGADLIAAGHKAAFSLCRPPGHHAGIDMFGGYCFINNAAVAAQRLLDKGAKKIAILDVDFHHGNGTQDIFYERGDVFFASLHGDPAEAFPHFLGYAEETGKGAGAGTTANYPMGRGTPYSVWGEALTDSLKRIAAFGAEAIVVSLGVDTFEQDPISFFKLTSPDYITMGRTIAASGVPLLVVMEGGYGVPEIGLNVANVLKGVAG
Put plainly: Enzyme activity on acetylpolyamine substrates, product purified to homogeneity (Method 2 / Method 3). In kind it is biochemical, Mycoplana bullata. Conditions: for Optimum pH: 37° C., phosphate and borate buffers, per substrate; for Vmax, Mycoplana bullata enzyme: pH 9.0; for Relative activity, Mycoplana bullata enzyme: phosphate buffer pH 9.0, substrate 0.833 mM, acetylputrescine = 100. The text has this: [Method 2] (Assay when acetylputrescine, acetylcadaverine, N^1 -acetylspermidine and N^8 -acetylspermidine are used as substrate:)
The acetylpolyamine can be hydrolyzed by the acetylpolyamine amidohydrolase, as described in [Method 1], and the corresponding free polyamine thus formed is then oxidized by putrescine oxidase. Putrescine oxidase derived from Micrococcus rubens is known to have an activity upon putrescine, cadaverine and spermidine [Adachi, et al., Agric. Biol. Chem, 30, 1202 (1966)]. […] The actual analytical procedure is as described below.
The above reagents, (b) through (h), were put in a cuvette (d: 1.0 cm) and the mixture was preincubated at 37° C. for 2 minutes. The substrate solution (a) was then added, and the resulting mixture was incubated at 37° C. Absorbance at 500 nm was measured over a period of 3 to 5 minutes, and the change in absorbance per minute (ΔODsample) was determined from the linear portion of the plotted curve. For control, the same procedure as above was carried out, using distilled water as reference.
One unit of acetylpolyamine amidohydrolase is defined as its amount necessary to hydrolyze 1 μmole of acetylputrescine at 37° C. for one minute (or the amount necessary to form 0.5 μmole of quinoneimine pigment formed in the method for measuring the enzyme activity described above).
[Method 3] (Assay when acetylspermine is used as substrate:)
Acetylspermine is hydrolyzed by the action of acetylpolyamine amidohydrolase into free form of spermine. The free form of spermine can be oxidized by a polyamine oxidase derived from Aspergillus terreus to produce hydrogen peroxide. Two molar equivalents of hydrogen peroxide is formed from one molar equivalent of spermine. Thus, the enzyme activity can be measured by quantitative determination of the hydrogen peroxide according to the method described above. However, since the above polyamine oxidase also acts upon acetylspermine, it is impossible to exactly measure the activity of acetylpolyamine amidohydrolase by the standard assay. […] The actual procedure is described below.
Reagents (b) through (d) given in item (1) were put in a test tube and the mixture was preincubated at 37° C. for 2 minutes. The substrate solution (a) was then added, the resulting mixture was incubated at 37° C. for 10 minutes, and the reaction was stopped by addition of the termination (e). A sample solution (100 μl) was taken from the reaction mixture and subjected to HPLC as described above to separate free form of spermine from acetylspermine. Generally, acetylspermine is eluted at a position of 38 minutes after the start of elution and free form of spermine at a position of 41 minutes after the start of elution. A sample solution (200 μl), taken from the eluate containing free form of spermine, was mixed in a cuvette with reagents (a) through (e) given in item (2) above, the mixture was incubated at 37° C. for 10 minutes, and the absorbance at 755 nm was measured. For control, the same procedure as above was carried out using 200 μl of Elunt A in place of the sample solution, as reference.
The concentration of free form of spermine in the reaction mixture can be determined from a calibration curve previously prepared on the basis of aqueous soluitons of free form of spermine with different concentrations. If the concentration of free form of spermine contained in 150 μl of the reaction mixture is taken as P (mM), then the potency (A) for 1 ml of the enzyme solution can be expressed by the following equation: […]
The activities upon acetylputrescine, acetylcadaverine, N^1 -acetylspermidine and N^8 -acetylspermidine were measured by [Method 2] in a phosphate buffer (pH 9.0) at a substrate concentration of 0.833 mM, and the activity upon acetyl-spermine was measured by [Method 3] under the same conditions. […] Km values, determined from the Lineweaver-Burk plot, are also listed in the same table. […]

The target in assay [4] is T2, acetylpolyamine amidohydrolase (the present enzyme, partially purified product) (Mycoplana ramosa, UniProt Q48935).
T2 construct: novel acetylpolyamine amidohydrolase of the present invention accumulated within the grown cells; made in house; host or cells: Mycoplana (natural producer; cells grown in culture)
T2 sequence (Q48935 1-341): T1 sequence (Q48935 1-341)
Put plainly: Enzyme activity on acetylpolyamine substrates, partially purified product (substrate specificity, optimum pH/temperature, Km). It is filed as biochemical, Mycoplana bullata. Conditions: for Optimum pH: pH 6 to 10, bis-Tris propane buffer, per substrate; for Relative activity, the present enzyme: pH 7.0, activity against acetylputrescine defined as 100. The procedure: Activity of the present enzyme (partially purified products) is measured according to the following procedure. That is, 0.1 ml of an enzyme solution is added to a reagent solution consisting of 1.5 ml of 0.1 M phosphate buffer (pH 7.0), 0.05 ml of 50 mM acetylpolyamine, 0.4 U of putrescine oxidase (when acetylputrescine, acetylcadaverine or acetylspermidine is used as substrate) or polyamine oxidase (when acetylspermidine or acetylspermine is used as substrate), 0.5 ml of 2.4 mM 4-aminoantipyrine, 0.5 ml of 42 mM phenol and 20 U of peroxidase. The mixture is incubated at 37° C., and the absorbance of quinoneimine pigment formed at 500 nm is measured.
In terms of the enzyme activity, the amount of enzyme that can hydrolyze 1 μmole of a substrate in one minute is defined as one unit (1 U).
The relative activities of acetylpolyamine amidohydrolases against various type of acetylpolyamine, defining the activities against acetylputrescine as 100 under a condition of pH 7.0, are as shown in Table 1 below.
Enzyme activity was measured at different pH levels ranging from 6 to 10 by using bis-Tris propane buffer solutions. The optimum pH was 9 for acetylputrescine and acetylcadaverine, and 8 for N^1 -acetylspermidine, N^8 -acetylspermidine and acetylspermine, as shown in FIG. 1.
The optimum working temperature for the present enzyme was about 50° C., when the relative activity was determined, using acetylputrescine as substrate, as shown in FIG. 4. The optimum temperatures for the other acetylpolyamine amidohydrolases were 30° to 40° C. This clearly distinguishes the present enzyme from the known enzymes.
Km values of the present enzyme and the other known enzymes for various types of acetylpolyamine at pH 7.0 were determined from the Line weaver-Burk plot [refer to J. Am. Chem. Soc., 56, 658 (1934)].

For assay [5], the system named is E3: Enzyme derived from Micrococcus luteus (acetylpolyamine amidohydrolase). Conditions: pH 7.0, cited from earlier work; for Relative activity, E3: activity against acetylputrescine defined as 100.
Where [6] appears, read: reported reference data in Table 5.

The Km is the substrate concentration at which the rate is half of its maximum. With Acetylspermidine, the “Relative activity, E1” value in assay [1] (pH 7.0) was 9.1%. The Michaelis constant (Km) in assay [1] (pH 7.0, read-out: Km, E1) is 1100 µM; in assay [1] (reported reference data in Table 5, read-out: Km, St. avellaneus enzyme), 1100 µM; in assay [2] it was 500 µM. Further, the “Relative activity, St. avellaneus enzyme” value in assay [1] (setting [6]) was 9.1%. For the same molecule, in assay [2], the “Relative activity, E2” value is recorded as 30%. The “Optimum pH” value in assay [3] is on record as 9.

Regarding `CC(=O)NCCCCNCCCN` [N^8 -Acetylspermidine], in assay [4], the “Optimum pH” value is 8 and the “Relative activity, the present enzyme” value is listed as 51%. Also, in assay [5], the “Relative activity, E3” value is listed as 85.1% and the Km was 380 µM. In addition, in assay [3], the “Substrate concentration at which substrate inhibition was observed” value was no less than 1 mM; the “Optimum pH” value is 9; the “Vmax, Mycoplana bullata enzyme” value was determined as 19.8 u/mg; the “Relative activity, Mycoplana bullata enzyme” value came to 60%.

For `CC(=O)NCCCNCCCCNCCCN` [Acetylspermine], the “Relative activity, E1” value in assay [1] (pH 7.0) is listed as 0.4%. For the same molecule, the “Relative activity, St. avellaneus enzyme” value in assay [1] (setting [6]) is 0.4%. For the same molecule, in assay [4], the “Optimum pH” value came to 8 and the “Relative activity, the present enzyme” value is listed as 24%. In addition, the Km in assay [4] (pH 7.0, Lineweaver-Burk plot) was found to be 160 µM. Further, in assay [2], the “Relative activity, E2” value is 3%. In addition, in assay [5], the “Relative activity, E3” value is 2.1%. For the same molecule, in assay [3], the “Substrate concentration at which substrate inhibition was observed” value is greater than 1.6 mM; the “Optimum pH” value worked out at 10; the “Vmax, Mycoplana bullata enzyme” value is given as 7.7 u/mg; the “Relative activity, Mycoplana bullata enzyme” value is 37%. Moreover, the Km in assay [3] (pH 9.0, Lineweaver-Burk plot, read-out: Km, Mycoplana bullata enzyme) was found to be 290 µM.

In the case of `CC(=O)NCCCNCCCCN` [N^1 -Acetylspermidine], in assay [4], the “Optimum pH” value stood at 8 and the “Relative activity, the present enzyme” value is 108%. In addition, the “Relative activity, E3” value in assay [5] is given as 3.5%. In addition, in assay [3], the “Substrate concentration at which substrate inhibition was observed” value is listed as no less than 1 mM; the “Optimum pH” value was 9; the “Vmax, Mycoplana bullata enzyme” value is recorded as 20.5 u/mg; the “Relative activity, Mycoplana bullata enzyme” value is 61%.

For `CC(=O)NCCCCCN` [Acetylcadaverine], in assay [4], the “Optimum pH” value was determined as 9 and the “Relative activity, the present enzyme” value is given as 71%. Besides, in assay [2], the “Relative activity, E2” value is listed as 45% and the Km is 1600 µM. The “Relative activity, E3” value in assay [5] is on record as 12.5%. Moreover, in assay [3], the “Substrate concentration at which substrate inhibition was observed” value was no less than 1 mM; the “Vmax, Mycoplana bullata enzyme” value is given as 18.8 u/mg; the “Relative activity, Mycoplana bullata enzyme” value came to 72%.
